Tests used:
[1] = test system: dopamine levels in the rat nucleus accumbens; assay: in vivo microdialysis in the nucleus accumbens in awake freely moving rats; set-up: species or system Wistar rats; details: for extracellular dopamine levels in the dialysate (percent of baseline): FIG. 1, varenicline 1.5 mg/kg, bupropion 2.5 mg/kg i.p., sampling 140 minutes, preliminary data; for extracellular DA levels / DA release in the rat nAc: FIGS. 1 to 5, overall statement
Protocol: Shown are dopamine levels measured in the dialysate expressed as percent of baseline. Drugs (mg/kg) or control solution (NaCl) was injected i.p. directly after time-point 0.
FIGS. 2 and 3 show results from in vivo microdialysis in the nucleus accumbens in awake freely moving male Wistar rats after injection of varenicline (1.5 mg/kg, i.p.) or bupropion (2.5, 5 and 10 mg/kg i.p.) Dopamine levels in the dialysate are expressed as percent of baseline. Drugs or control solution (NaCl) was injected directly after time-point 0.
FIG. 5 illustrates the Area Under the Curve (AUC) 0-140 minutes (Bup 5 vs Var+Bup 5: p<0.001.
A). Experiments that examine the effects of varenicline and bupropion (separately and in combination) on dopamine release in the nucleus accumbens (nAc; a central part of the brain reward system) using in vivo microdialysis in awake, freely moving rats have commenced. […] Rats were surgically implanted with a microdialysis probe into nAc, which two days later was coupled to a perfusion pump allowing liquid sampling from the extracellular space. After a stable baseline was obtained varenicline (1.5 mg/kg, […].), bupropion (2.5 mg/kg, i.p.) or control solution was administered and sampling continued for 140 minutes. […] Further, as long as bupropion produces an effect, this effect adds to the varenicline effect when the two drugs are given in combination.

[2] = test system: subjects with alcohol use disorder; details: treatment of AUD, literature, cited from earlier work; for effect size (Cohen's D): meta-analyses
[3] = test system: nicotinic acetylcholine receptors (nAChRs); details: systemic administration or site-directed injections in the VTA (Blomqvist et al., 1996; Ericson et al., 1998); cited from earlier work
[4] = test system: relapses to drinking; details: chronic i.m. administration (Wiesbeck et al., 2001); cited from earlier work
[5] = test system: alcohol dependent individuals; details: cited from earlier work
[6] = test system: ethanol-induced stimulation and euphoria; details: McKee et al. (2009); cited from earlier work

| SMILES | extracellular dopamine levels in the dialysate (percent of baseline) [1] | extracellular DA levels / DA release in the rat nAc [1] | Numbers-needed-to-treat (NNT) [2] | effect size (Cohen's D) [2] | also measured |
| --- | --- | --- | --- | --- | --- |
| CC(NC(C)(C)C)C(=O)c1cccc(Cl)c1 (stereo not shown) [bupropion] | raise extracellular dopamine levels | increase extracellular DA levels |  |  |  |
| CC(=O)NCCCS(=O)(=O)O [Acamprosate] |  |  | 7.5 | 0.32 |  |
| CNC1(C)C2CCC(C2)C1(C)C (stereo not shown) [mecamylamine] |  |  |  |  | ethanol intake and preference [3]: reduces |
| OCCN1CCN(CC/C=C2\c3ccccc3Sc3ccc(C(F)(F)F)cc32)CC1 [fluphentixole] |  |  |  |  | relapses to drinking as compared to placebo [4]: worsened the condition |
| c1cnc2cc3c(cc2n1)[C@@H]1CNC[C@H]3C1 [varenicline] | raise extracellular dopamine levels | increase extracellular DA levels |  |  | effect ([5]; females (O'Malley et al., 2017)): no effect; effect size ([5]; male alcoholics (O'Malley et al., 2017)): 0.45; ethanol-induced stimulation and euphoria [6]: blocked |
| O=C1CC[C@@]2(O)[C@H]3Cc4ccc(O)c5c4[C@@]2(CCN3CC2CC2)[C@H]1O5 [Naltrexone] |  |  | 8.6 | 0.2 |  |

Reference: US11318143B2, “Treatment of alcohol use disorder” (priority 2017, dated 2022)
